Biological target: VprBP (Homo sapiens, UniProt Q9Y4B6)
Experiment: in vitro kinase assay with recombinant VprBP and H2A
Format: biochemical

Chain of VprBP (Q9Y4B6 whole entry): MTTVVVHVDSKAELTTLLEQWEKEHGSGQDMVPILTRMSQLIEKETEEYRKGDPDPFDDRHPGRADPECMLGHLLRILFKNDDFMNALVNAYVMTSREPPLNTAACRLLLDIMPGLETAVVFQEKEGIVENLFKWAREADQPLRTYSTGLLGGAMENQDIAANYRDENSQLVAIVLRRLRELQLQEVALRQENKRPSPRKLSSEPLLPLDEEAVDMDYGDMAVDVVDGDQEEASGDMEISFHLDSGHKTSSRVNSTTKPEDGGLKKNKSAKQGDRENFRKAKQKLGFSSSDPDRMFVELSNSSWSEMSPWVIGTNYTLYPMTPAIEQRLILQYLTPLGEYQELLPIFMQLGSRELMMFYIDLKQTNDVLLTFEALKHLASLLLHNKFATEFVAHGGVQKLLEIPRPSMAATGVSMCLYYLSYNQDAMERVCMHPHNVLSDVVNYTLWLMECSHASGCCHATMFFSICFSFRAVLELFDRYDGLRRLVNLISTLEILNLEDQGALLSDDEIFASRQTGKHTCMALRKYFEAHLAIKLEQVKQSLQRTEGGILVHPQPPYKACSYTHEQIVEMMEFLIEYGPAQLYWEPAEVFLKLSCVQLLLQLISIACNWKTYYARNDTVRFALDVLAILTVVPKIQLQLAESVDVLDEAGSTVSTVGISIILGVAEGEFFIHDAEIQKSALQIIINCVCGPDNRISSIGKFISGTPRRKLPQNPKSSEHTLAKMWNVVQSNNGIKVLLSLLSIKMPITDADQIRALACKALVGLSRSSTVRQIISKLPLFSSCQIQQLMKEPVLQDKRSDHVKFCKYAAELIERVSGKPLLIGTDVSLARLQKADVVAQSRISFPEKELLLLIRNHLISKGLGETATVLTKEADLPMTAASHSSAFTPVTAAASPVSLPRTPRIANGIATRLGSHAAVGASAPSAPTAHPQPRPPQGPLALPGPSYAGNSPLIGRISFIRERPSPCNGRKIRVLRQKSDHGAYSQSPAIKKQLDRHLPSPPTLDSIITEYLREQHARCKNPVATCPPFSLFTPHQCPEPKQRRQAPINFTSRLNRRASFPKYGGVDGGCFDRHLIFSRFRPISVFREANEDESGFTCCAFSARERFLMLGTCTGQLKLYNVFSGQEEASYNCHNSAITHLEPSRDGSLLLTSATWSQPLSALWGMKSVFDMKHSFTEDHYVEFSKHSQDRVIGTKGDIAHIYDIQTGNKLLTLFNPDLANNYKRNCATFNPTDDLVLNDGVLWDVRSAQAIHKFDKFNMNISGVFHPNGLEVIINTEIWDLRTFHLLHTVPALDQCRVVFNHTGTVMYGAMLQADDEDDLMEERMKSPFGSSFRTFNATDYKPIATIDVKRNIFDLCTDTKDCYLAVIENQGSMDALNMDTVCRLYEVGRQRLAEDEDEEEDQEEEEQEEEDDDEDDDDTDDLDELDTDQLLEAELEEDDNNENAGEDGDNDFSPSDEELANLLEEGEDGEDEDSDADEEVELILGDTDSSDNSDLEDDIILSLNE

IC50: 600 nM
Substance: B32B3
